In US12291502B2, “Topoisomerase II-alpha inhibitors and methods of treating cancer using the same” (The Regents of the University of Colorado, priority 2019, dated 2025):
“Also recorded” adds a separate entry of the source.

Tests used:
[1] = system: H2AX S139 phosphorylation (γ-H2AX) in colon cancer cell lines HT29 and SW620; test: γ-H2AX DNA damage assay (immunofluorescence); assay type: cell-based; conditions: 0-40 μM for Neo, 7, BAP1, 5-100 μM for etoposide
Protocol: γ-H2AXDNA damage assay. Colon cancer cell lines HT29 and SW620 were plated to black clear bottom 96 well plates at 20,000 cells/well in 100 μL of phenol red free medium. […] Cells were fixed with 4% paraformaldehyde at room temp for 20 min, washed 3 times with 400 μL/well of PBS, permeabilized and blocked with 100 μL of 3% BSA and 0.1% IGEPAL in PBS for 20 min. Cells were then incubated in γ-H2AX primary antibody (Cell Signaling, 1:400 dilution) at 4° C. overnight, washed 4 times with PBS, and incubated with FITC conjugated anti-rabbit secondary antibody (Cell Signaling, 1:200 dilution) at room temp for 1 hour, and washed 4 times with PBS. Cells were stained with 10 μM of Hoechst 33342 at room temp for 10 min, washed 4 times with PBS before imaged with a 20× objective using PerkinElmer Operetta imager.

hTopoIIα (TOP2A) = molecular target: T1, hTopoIIα (TOP2A) (Homo sapiens, UniProt P11388); test: TOP2A ATPase / DNA relaxation assay, Michaelis-Menten mode of inhibition (malachite green); assay type: biochemical; conditions: Vmax unchanged, KM shifted
T1 construct: purchased Topogen, CO
Protocol: TOP2A inhibition (Michaelis-Menten). TOP2A Mode of Inhibition was tested with a relaxation assay and the inorganic phosphate (pi) generated was measured with phosphate reagent (Abcam) in black polystyrene 384-well assay plates (Thermo Fisher Scientific). ATP-dependent DNA relaxation assays in 15 μl contained 2 U hTopolla (Topogen), 85 μg/mil (10 nM) supercoiled plasmid (a gift from AstraZeneca), and various concentrations of ATP (between […]) and analog 3 and 7 (between 0 and 20 μM) in 50 mM Tris-HCl (pH 7.5), 150 mM KCl, 5% (v/v) glycerol, 10 mM MgCl2, 1 mM dithiothreitol, 0.002% (w/v) Brij-35, and 200 nM bovine serum albumin (BSA). […] An addition of 70 μL of ddH2O and 15 μL of phosphate reagent were added to each well and the plates were incubated in dark at room temp for 30 min before OD600 was read with a BioTek plate reader. […]
TOP2A ATPase Assay. The mode of inhibition of TOP2A analogs were tested with a DNA relaxation assay and the inorganic phosphate (pi) generated was measured with malachite green phosphate reagent (Abcam, MA) in black polystyrene 384-well assay plates (Thermo Fisher Scientific, MA). […] An addition of 70 μL of ddH2O and 15 μL of phosphate reagent were added to each well and the plates were incubated in dark at room temp for 30 min before OD600 was read with a BioTek plate reader. […]

T1 sequence (P11388 whole entry): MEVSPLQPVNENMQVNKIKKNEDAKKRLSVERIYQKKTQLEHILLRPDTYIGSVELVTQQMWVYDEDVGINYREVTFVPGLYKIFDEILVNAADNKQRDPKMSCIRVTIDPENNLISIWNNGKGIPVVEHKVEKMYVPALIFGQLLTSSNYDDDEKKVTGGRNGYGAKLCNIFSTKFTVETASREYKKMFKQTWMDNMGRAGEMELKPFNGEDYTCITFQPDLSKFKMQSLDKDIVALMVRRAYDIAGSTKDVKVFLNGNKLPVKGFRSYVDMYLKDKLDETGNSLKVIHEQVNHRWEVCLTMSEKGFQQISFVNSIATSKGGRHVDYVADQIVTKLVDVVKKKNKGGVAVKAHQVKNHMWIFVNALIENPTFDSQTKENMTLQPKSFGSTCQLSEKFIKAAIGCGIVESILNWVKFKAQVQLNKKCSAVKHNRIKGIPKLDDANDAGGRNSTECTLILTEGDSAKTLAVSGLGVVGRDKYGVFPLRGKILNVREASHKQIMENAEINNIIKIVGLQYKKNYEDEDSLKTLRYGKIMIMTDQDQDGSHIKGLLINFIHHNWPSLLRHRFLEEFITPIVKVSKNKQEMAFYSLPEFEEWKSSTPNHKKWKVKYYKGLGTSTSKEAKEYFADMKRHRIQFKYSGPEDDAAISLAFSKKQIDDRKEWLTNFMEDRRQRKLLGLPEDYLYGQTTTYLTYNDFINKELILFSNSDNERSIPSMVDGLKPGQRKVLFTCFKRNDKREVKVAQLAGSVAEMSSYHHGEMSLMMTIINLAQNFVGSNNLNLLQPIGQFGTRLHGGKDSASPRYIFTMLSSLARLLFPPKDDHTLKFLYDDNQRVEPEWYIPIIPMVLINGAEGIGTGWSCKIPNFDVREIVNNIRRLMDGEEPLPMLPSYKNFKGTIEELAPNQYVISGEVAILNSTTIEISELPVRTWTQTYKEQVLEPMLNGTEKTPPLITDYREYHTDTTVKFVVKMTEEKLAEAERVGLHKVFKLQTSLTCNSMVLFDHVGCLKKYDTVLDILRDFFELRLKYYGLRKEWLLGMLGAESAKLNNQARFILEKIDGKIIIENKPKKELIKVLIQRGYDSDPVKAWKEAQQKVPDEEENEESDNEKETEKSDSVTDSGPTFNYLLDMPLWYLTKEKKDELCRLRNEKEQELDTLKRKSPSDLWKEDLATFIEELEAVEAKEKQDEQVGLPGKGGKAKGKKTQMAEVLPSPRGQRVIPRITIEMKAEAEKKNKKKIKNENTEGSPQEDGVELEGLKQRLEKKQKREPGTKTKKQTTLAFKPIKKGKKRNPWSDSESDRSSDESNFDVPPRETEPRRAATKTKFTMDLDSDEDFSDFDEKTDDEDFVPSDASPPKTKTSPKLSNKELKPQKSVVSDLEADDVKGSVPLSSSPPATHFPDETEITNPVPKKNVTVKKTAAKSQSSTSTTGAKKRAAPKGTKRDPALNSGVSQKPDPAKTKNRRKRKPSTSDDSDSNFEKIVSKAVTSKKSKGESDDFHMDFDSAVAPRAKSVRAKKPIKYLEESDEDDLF

| SMILES | DNA double stranded breaks (γ-H2AX) [1] | DNA double stranded breaks (γ-H2AX) ([1]; listed as Neo) | mode of TOP2A inhibition (Michaelis-Menten kinetics of ATP hydrolysis) (hTopoIIα (TOP2A)) |
| --- | --- | --- | --- |
| Cn1ccc2c(c1=O)C(=O)c1nccc3c1C2NC1=CCC=CC13 (centres unmarked) [neo, neoamphimedine, reference compound] | do not damage DNA | do not cause DNA DSBs | ATP-competitive mode of inhibition |
| CC(=O)Nc1ccc2c(-c3cc(F)ccc3O)ccnc2c1O [Analog 7] | do not damage DNA; also recorded: do not cause DNA DSBs | – | ATP-competitive mode of inhibition |
